Converted amounts (≈) assume the structure as drawn. The source made the active and inactive calls. The rule behind the calls is not given here.
Assays:
Candida tropicalis [1] = test: Inhibition of Candida tropicalis ATCC 750 chitin synthase using UDP-GlcNAc as substrate at 300 ug/ml by TMB based microplate analyzer relative to control; conditions: dose 300.0 µg/ml
[2] = Inhibition of Candida tropicalis ATCC 750 chitin synthase using UDP-GlcNAc as substrate by TMB based microplate analyzer
Candida albicans [3] = test: Antimicrobial activity against Candida albicans ATCC 76615 incubated for 24 hrs by two fold serial dilution method; format: functional
Aspergillus flavus [4] = test: Antimicrobial activity against Aspergillus flavus ATCC 16870 incubated for 24 hrs by two fold serial dilution method; format: functional
Aspergillus fumigatus [5] = test: Antimicrobial activity against Aspergillus fumigatus GIMCC 3.19 incubated for 24 hrs by two fold serial dilution method; format: functional
Cryptococcus neoformans [6] = test: Antimicrobial activity against Cryptococcus neoformans ATCC 32719 incubated for 24 hrs by two fold serial dilution method; format: functional
Candida albicans [7] = test: Antimicrobial activity against Candida albicans ATCC 76615 assessed as inhibition of cell wall synthesis in presence of sorbitol; format: functional
Aspergillus flavus [8] = test: Antimicrobial activity against Aspergillus flavus ATCC 16870 assessed as inhibition of cell wall synthesis in presence of sorbitol; format: functional
Aspergillus fumigatus [9] = test: Antimicrobial activity against Aspergillus fumigatus GIMCC 3.19 assessed as inhibition of cell wall synthesis in presence of sorbitol; format: functional
Cryptococcus neoformans [10] = test: Antimicrobial activity against Cryptococcus neoformans ATCC 32719 assessed as inhibition of cell wall synthesis in presence of sorbitol; format: functional
Candida albicans [11] = test: Antimicrobial activity against fluconazole-resistant Candida albicans ATCC 76615R incubated for 24 hrs by two fold serial dilution method; format: functional
Aspergillus flavus [12] = test: Antimicrobial activity against Fluconazole-resistant Aspergillus flavus ATCC 16870R incubated for 24 hrs by two fold serial dilution method; format: functional
Aspergillus fumigatus [13] = test: Antimicrobial activity against Fluconazole-resistant Aspergillus fumigatus GIMCC 3.19R incubated for 24 hrs by two fold serial dilution method; format: functional
Cryptococcus neoformans [14] = test: Antimicrobial activity against Fluconazole-resistant Cryptococcus neoformans ATCC 32719R incubated for 24 hrs by two fold serial dilution method; format: functional
Candida albicans [15] = test: Antimicrobial activity against micafungin-resistant Candida albicans ATCC 76615R incubated for 24 hrs by two fold serial dilution method; format: functional
Candida albicans [16] = test: Antimicrobial activity against Candida albicans ATCC 76615 incubated for 24 hrs in presence of fluconazole by checkerboard method; format: functional
Aspergillus flavus [17] = test: Antimicrobial activity against Aspergillus flavus ATCC 16870 incubated for 24 hrs in presence of fluconazole by checkerboard method; format: functional
Aspergillus fumigatus [18] = test: Antimicrobial activity against Aspergillus fumigatus GIMCC 3.19 incubated for 24 hrs in presence of fluconazole by checkerboard method; format: functional
Cryptococcus neoformans [19] = test: Antimicrobial activity against Cryptococcus neoformans ATCC 32719 incubated for 24 hrs in presence of fluconazole by checkerboard method; format: functional
Candida albicans [20] = test: Antimicrobial activity against Candida albicans ATCC 76615 incubated for 24 hrs in presence of polyoxin B by checkerboard method; format: functional
Aspergillus flavus [21] = test: Antimicrobial activity against Aspergillus flavus ATCC 16870 incubated for 24 hrs in presence of polyoxin B by checkerboard method; format: functional
Aspergillus fumigatus [22] = test: Antimicrobial activity against Aspergillus fumigatus GIMCC 3.19 incubated for 24 hrs in presence of polyoxin B by checkerboard method; format: functional
Cryptococcus neoformans [23] = test: Antimicrobial activity against Cryptococcus neoformans ATCC 32719 incubated for 24 hrs in presence of polyoxin B by checkerboard method; format: functional
Candida albicans [24] = test: Synergistic antimicrobial activity against Candida albicans ATCC 76615 assessed as fractional inhibitory concentration index incubated for 24 hrs in presence of fluconazole by checkerboard method; format: functional
Aspergillus flavus [25] = test: Synergistic antimicrobial activity against Aspergillus flavus ATCC 16870 assessed as fractional inhibitory concentration index incubated for 24 hrs in presence of fluconazole by checkerboard method; format: functional
Aspergillus fumigatus [26] = test: Synergistic antimicrobial activity against Aspergillus fumigatus GIMCC 3.19 assessed as fractional inhibitory concentration index incubated for 24 hrs in presence of fluconazole by checkerboard method; format: functional
Cryptococcus neoformans [27] = test: Additive antimicrobial activity against Cryptococcus neoformans ATCC 32719 assessed as fractional inhibitory concentration index incubated for 24 hrs in presence of fluconazole by checkerboard method; format: functional
Candida albicans [28] = test: Synergistic antimicrobial activity against Candida albicans ATCC 76615 assessed as fractional inhibitory concentration index incubated for 24 hrs in presence of polyoxin B by checkerboard method; format: functional
Aspergillus flavus [29] = test: Synergistic antimicrobial activity against Aspergillus flavus ATCC 16870 assessed as fractional inhibitory concentration index incubated for 24 hrs in presence of polyoxin B by checkerboard method; format: functional
Aspergillus fumigatus [30] = test: Synergistic antimicrobial activity against Aspergillus fumigatus GIMCC 3.19 assessed as fractional inhibitory concentration index incubated for 24 hrs in presence of polyoxin B by checkerboard method; format: functional
Cryptococcus neoformans [31] = test: Additive antimicrobial activity against Cryptococcus neoformans ATCC 32719 assessed as fractional inhibitory concentration index incubated for 24 hrs in presence of polyoxin B by checkerboard method; format: functional
Candida tropicalis [32] = test: Non-competitive inhibition of Candida tropicalis ATCC 750 chitin synthase using UDP-GlcNAc as substrate assessed as decrease in Vmax with constant Km by Lineweaver-Burk plot analysis
[33] = Binding affinity to Candida tropicalis ATCC 750 chitin synthase assessed as inhibition constant by Lineweaver-Burk plot analysis

Row | Structure (SMILES) | inhibition (Candida tropicalis [1]) [%] | IC50 [2] [µM] | MIC (Candida albicans [3]) [µg/mL] | MIC (Aspergillus flavus [4]) [µg/mL] | MIC (Aspergillus fumigatus [5]) [µg/mL] | MIC (Cryptococcus neoformans [6]) [µg/mL] | MIC (Candida albicans [7]) [µg/mL] | MIC (Aspergillus flavus [8]) [µg/mL] | MIC (Aspergillus fumigatus [9]) [µg/mL] | MIC (Cryptococcus neoformans [10]) [µg/mL] | MIC (Candida albicans [11]) [µg/mL] | MIC (Aspergillus flavus [12]) [µg/mL] | MIC (Aspergillus fumigatus [13]) [µg/mL] | MIC (Cryptococcus neoformans [14]) [µg/mL] | MIC (Candida albicans [15]) [µg/mL] | also measured
1 | O=C(c1c(F)cccc1F)N1CCN(CC(=O)N2CCCC23Cc2ccccc2NC3=O)CC1 (stereo not drawn) | 83.4 | 110 | 1 (≈ 2.13 µM) | 2 (≈ 4.27 µM) | 0.5 (≈ 1.07 µM) | 8 (≈ 17.1 µM) | 128 | 256 | 64 | 256 | 64 (≈ 137 µM) | 64 (≈ 137 µM) | 64 (≈ 137 µM) | 128 (≈ 273 µM) | 64 (≈ 137 µM) | MIC (Candida albicans [16]): 1 µg/mL; MIC (Aspergillus flavus [17]): 4 µg/mL; MIC (Aspergillus fumigatus [18]): 2 µg/mL; MIC (Cryptococcus neoformans [19]): 1 µg/mL; MIC (Candida albicans [20]): 1 µg/mL; MIC (Aspergillus flavus [21]): 1 µg/mL; MIC (Aspergillus fumigatus [22]): 2 µg/mL; MIC (Cryptococcus neoformans [23]): 2 µg/mL; fractional inhibitory concentration index (FICI) (Candida albicans [24]): 0.75; fractional inhibitory concentration index (FICI) (Aspergillus flavus [25]): 0.75; fractional inhibitory concentration index (FICI) (Aspergillus fumigatus [26]): 0.625; fractional inhibitory concentration index (FICI) (Cryptococcus neoformans [27]): 1.125; fractional inhibitory concentration index (FICI) (Candida albicans [28]): 0.625; fractional inhibitory concentration index (FICI) (Aspergillus flavus [29]): 0.375; fractional inhibitory concentration index (FICI) (Aspergillus fumigatus [30]): 0.75; fractional inhibitory concentration index (FICI) (Cryptococcus neoformans [31]): 1.125
2 | O=C(c1cc(Cl)ccc1Cl)N1CCN(CC(=O)N2CCCC23Cc2ccccc2NC3=O)CC1 (stereo not drawn) | 67.6 | 180 | 4 (≈ 7.98 µM) | 8 (≈ 16 µM) | 8 (≈ 16 µM) | 8 (≈ 16 µM) | 64 | 32 | 64 | 128 | 64 (≈ 128 µM) | 64 (≈ 128 µM) | 64 (≈ 128 µM) | 64 (≈ 128 µM) | 32 (≈ 63.8 µM) | 
3 | COc1cccc(C(=O)N2CCN(CC(=O)N3CCCC34Cc3ccccc3NC4=O)CC2)c1 (stereo not drawn) | 50.7 |  | 32 (≈ 69.2 µM) | 64 (≈ 138 µM) | 32 (≈ 69.2 µM) | 128 (≈ 277 µM) |  |  |  |  |  |  |  |  |  | 
4 | O=C(c1cccc([N+](=O)[O-])c1)N1CCN(CC(=O)N2CCCC23Cc2ccccc2NC3=O)CC1 (stereo not drawn) | 81.2 | 120 | 4 (≈ 8.38 µM) | 4 (≈ 8.38 µM) | 8 (≈ 16.8 µM) | 32 (≈ 67 µM) | 128 | 128 | 64 | 256 | 64 (≈ 134 µM) | 32 (≈ 67 µM) | 64 (≈ 134 µM) | 64 (≈ 134 µM) | 64 (≈ 134 µM) | inhibition (Candida tropicalis [32]): Active; Ki [33]: 140 µM
5 | Cc1cccc(C(=O)N2CCN(CC(=O)N3CCCC34Cc3ccccc3NC4=O)CC2)c1 (stereo not drawn) | 49.4 |  | 16 (≈ 35.8 µM) | 32 (≈ 71.7 µM) | 32 (≈ 71.7 µM) | 64 (≈ 143 µM) |  |  |  |  |  |  |  |  |  | 
6 | NC(=O)OC[C@H](O)[C@@H](O)[C@H](N)C(=O)N[C@H](C(=O)O)[C@H]1O[C@@H](n2cc(CO)c(=O)[nH]c2=O)[C@H](O)[C@@H]1O [POLYOXIN B] | 86.1 | 90 | 8 (≈ 15.8 µM) | 8 (≈ 15.8 µM) | 8 (≈ 15.8 µM) | 16 (≈ 31.5 µM) | 64 | 64 | 64 | 128 |  |  |  |  |  | 
7 | O=C(c1ccccc1I)N1CCN(CC(=O)N2CCCC23Cc2ccccc2NC3=O)CC1 (stereo not drawn) | 54.2 |  | 8 (≈ 14.3 µM) | 16 (≈ 28.7 µM) | 16 (≈ 28.7 µM) | 32 (≈ 57.3 µM) |  |  |  |  |  |  |  |  |  | 
8 | Cc1ccc(C(=O)N2CCN(CC(=O)N3CCCC34Cc3ccccc3NC4=O)CC2)cc1 (stereo not drawn) | 52.3 |  | 16 (≈ 35.8 µM) | 16 (≈ 35.8 µM) | 32 (≈ 71.7 µM) | 64 (≈ 143 µM) |  |  |  |  |  |  |  |  |  | 

Source: ChEMBL document CHEMBL5634100, “Novel spiro[pyrrolidine-2,3'-quinoline]-2'-one derivatives containing piperazine fragment as potential chitin synthase inhibitors and antifungal agents: Design, synthesis and biological evaluation” (Eur J Med Chem, 2023)
